Series [1] deals with PsrA (His6-PsrA) (Pseudomonas aeruginosa, UniProt Q9HZJ9). Nature of the series: EMSA, inhibition of PsrA binding to promoter DNA. The conditions noted are these: 100 ng PpsrA, PrpoS or PexsC DNA; 0.01% Brij-58; inhibition seen from 5 µM. A general note: A gel shift assay detects complexes by their altered migration in electrophoresis.
Series [2] concerns the molecule itself. In words: crystal structure.

This note sets out measurements from publication PMC2759274 (Molecular microbiology, 2009).

On to `CCCCCCCC/C=C\CCCCCCCC(=O)O` [oleate], for which the “complete inhibition of DNA binding” value in series [1] is 50 µM.

B1: PsrA (PA3006) of Pseudomonas aeruginosa (natural protein)
chain: MAQSETVERILDAAEQLFAEKGFAETSLRLITSKAGVNLAAVNYHFGSKKALIQAVFSRFLGPFCASLEKELDRRQAKPEAQHATLEDLLHLLVSQAMAVKPRSGNDLSIFMRLLGLAFSQSQGHLRKYLEEVYGKVFRRYMLLVNEAAPKLPPIELFWRVHFMLGAAAFSMSGIKALRAMAETDFGVNTSTEQVMHLMVPFFAAGMRAESGIDDPLLAGAQLRPRNKTPAKA
modifications: selenomethionine in place of methionine
Regarding B1, the binding result in series [2] was “binds”.
